From ChEMBL document CHEMBL4483862, “Open-source discovery of chemical leads for next-generation chemoprotective antimalarials” (2018)

System: Plasmodium berghei
Experiment: Luciferase/luciferin-expressing antifolate-resistant parasites were used to infect a culture of HepG2 cells that were pre-incubated with compounds. Infected hepatocytes emit light due to the luciferase reaction. Assay results are presented as the percent inhibition of light emission compared to control. […]
Format: functional
Settings: sporozoite; for IC90: read-out: LUCIFERASE INFECTION ASSAY - IC90
[1] = read-out: LUCIFERASE INFECTION ASSAY - IC50

Row | Compound | IC50 [1] [µM] | IC90 [µM] | further results
1 | CCN(CC)c1ccc(NC(=S)NC(=O)c2ccco2)cc1S(=O)(=O)Nc1ccc(OC)cc1 | > 10 | > 10 | –
2 | COC(=O)c1c(NC(=O)CN(C)Cc2ccc(OC(F)F)c(OC)c2)sc(C)c1C | > 10 | > 10 | –
3 | CCOc1cc(/C=C/C(=O)c2nc3ccccc3s2)cc(Cl)c1OCC(=O)N(C)C | – | 4.79 | IC50 (HEPG2TOX_HILL_SLOPE 10.9, HEPG2TOX_R_SQUARED 0.987, PBLUC_HILL_SLOPE 8.99, 3.54, PBLUC_R_SQUARED 0.449, 0.614, read-out: LUCIFERASE INFECTION ASSAY - IC50): 4.84 µM
4 | CN(C)c1ccc(C(c2ccc(OC(F)F)cc2)c2ccc(N(C)C)cc2)cc1 | – | 6.27 | IC50 (HEPG2TOX_HILL_SLOPE 3.6, HEPG2TOX_R_SQUARED 0.971, PBLUC_HILL_SLOPE 3.21, PBLUC_R_SQUARED 0.781, read-out: LUCIFERASE INFECTION ASSAY - IC50): 3.16 µM
5 | O=C(CN1C(=O)C(=O)N(CCc2cccs2)C1=O)NC(=O)Nc1ccccc1F | – | > 10 | IC50 (PBLUC_HILL_SLOPE 3, PBLUC_R_SQUARED 0.385, read-out: LUCIFERASE INFECTION ASSAY - IC50): > 10 µM
6 | c1ccn2c(Sc3ncnc4sc5c(c34)CCC5)nnc2c1 | – | > 10 | IC50 (PBLUC_HILL_SLOPE 2.99, PBLUC_R_SQUARED 0.206, read-out: LUCIFERASE INFECTION ASSAY - IC50): 4.93 µM
7 | CCCn1c(N)c(N2CCCCC2)c(=O)n(Cc2nc(N)nc(Nc3ccccc3)n2)c1=O | 2.17 | 3.51 | –
8 | Cn1cc(-c2cnc3cnc(-c4ccsc4)cn23)cn1 | – | > 11.7 | IC50 (HEPG2TOX_HILL_SLOPE 1.9, HEPG2TOX_R_SQUARED 0.409, PBLUC_HILL_SLOPE 1.49, PBLUC_R_SQUARED 0.155, read-out: LUCIFERASE INFECTION ASSAY - IC50): > 11.7 µM
9 | Cc1ccc(-n2c(Sc3ccc([N+](=O)[O-])c4cnccc34)nnc2-c2ccccc2)cc1C | – | > 10 | IC50 (HEPG2TOX_HILL_SLOPE 0.296, HEPG2TOX_R_SQUARED 0.243, PBLUC_HILL_SLOPE 1.34, PBLUC_R_SQUARED 0.0191, read-out: LUCIFERASE INFECTION ASSAY - IC50): > 10 µM
10 | O=C(c1cc(-c2ccccc2)n[nH]1)N1CCN(c2ccccc2F)CC1 | > 10 | > 10 | –
11 | Cc1nn2c(=O)c(Cc3ccccc3)c(C)[nH]c2c1-c1ccc(F)cc1 | – | 1.3 | IC50 (HEPG2TOX_HILL_SLOPE 0.716, HEPG2TOX_R_SQUARED 0.984, PBLUC_HILL_SLOPE 2.69, PBLUC_R_SQUARED 0.765, read-out: LUCIFERASE INFECTION ASSAY - IC50): 0.576 µM
12 | CC1Cc2nc(N)nc(N)c2CC1C (configuration not stated) | > 17.2 | > 17.2 | –
13 | CC(C)c1ccc(-n2c(SCc3ccc([N+](=O)[O-])cc3)nnc2-c2ccc(C(C)(C)C)cc2)cc1 | > 6.78 | > 6.78 | –
14 | N#CCOc1cc(Cl)cc(Cl)c1 | – | > 16.3 | IC50 (FFLUC_HILL_SLOPE 1.89, FFLUC_R_SQUARED 0.0257, read-out: LUCIFERASE INFECTION ASSAY - IC50): > 16.3 µM
15 | COc1ccc(C)cc1NC(=O)C(OC(=O)c1cccn1C)c1ccccc1 (configuration not stated) | – | > 10 | IC50 (PBLUC_HILL_SLOPE 2.21, PBLUC_R_SQUARED 0.0841, read-out: LUCIFERASE INFECTION ASSAY - IC50): 8.87 µM
16 | O=C(NCCSCc1csc2ccc(Cl)cc12)Nc1ccccc1 | – | > 8.75 | IC50 (PBLUC_HILL_SLOPE 14.3, PBLUC_R_SQUARED 0.456, read-out: LUCIFERASE INFECTION ASSAY - IC50): 8.24 µM
17 | COc1ccc(C(=O)N(c2nc3ccccc3s2)c2c(C)cccc2C)cc1 | – | > 10 | IC50 (HEPG2TOX_HILL_SLOPE 1.69, HEPG2TOX_R_SQUARED 0.759, PBLUC_HILL_SLOPE 12.9, PBLUC_R_SQUARED 0.198, read-out: LUCIFERASE INFECTION ASSAY - IC50): 9.04 µM
18 | CCCCOc1ccc(/C=C/C(=O)NNC(=O)Cc2nc3ccccc3n2C)cc1OCC | – | 9.1 | IC50 (HEPG2TOX_HILL_SLOPE 2.18, HEPG2TOX_R_SQUARED 0.787, PBLUC_HILL_SLOPE 13.4, PBLUC_R_SQUARED 0.401, read-out: LUCIFERASE INFECTION ASSAY - IC50): 7.73 µM
19 | CCCNC(=O)c1c(NC(=O)c2cccc(C)c2)nc2ccccn12 | – | > 9.81 | IC50 (PBLUC_HILL_SLOPE 17.7, PBLUC_R_SQUARED 0.381, read-out: LUCIFERASE INFECTION ASSAY - IC50): 9.1 µM
20 | Nc1nnc(SCc2c(F)cccc2Cl)[nH]1 | > 12.8 | > 12.8 | –
21 | CCOC(=O)c1c(NC(=O)C(C)N(C)CC(=O)Nc2cc(C)ccc2C)sc2c1CCC(C)C2 (configuration not stated) | > 10 | > 10 | –
